In publication PMC7323874, “Vancomycin Resistance Is Overcome by Conjugation of Polycationic Peptides” (Angewandte Chemie (International Ed. in English), 2020):
Values after ≈ are worked out from the molar mass of the structure shown. Where two headings read alike, the source gives them in different places.

Key:
[1] = Molecular imaging (PET, scintigraphy) and biodistribution of radiolabeled compounds; format: in vivo, female Wistar rats; conditions: for scintigraphy, distribution and excretion: i.v.
Method: Biodistribution and pharmacokinetic studies
The biodistribution and pharmacokinetic studies were performed with radiolabeled (124I/125I) compounds. For this radiolabeling strategy, a D-tyrosine-modified derivative was synthesized, which enabled the […] substitution. The D-tyrosine was located at the N-terminus of the respective peptide. Vancomycin was radiolabeled without any further structural modification. For radiolabeling, a 1 mM stock solution of phosphate buffer/dimethyl sulfoxide was prepared as described previously by Uhl et al.12 The required amount of radioactive iodine-124 (124I) or rather iodine-125 (125I) was added to a mixture of 25 µl of the stock solution and 25 µl of a phosphate buffer (0.25 mM; pH 7.5). Radiolabeling was performed using the chloramine T method as previously described by Crim et al.13 The labeled compound was purified by semi-preparative HPLC. Analysis was done by radio-HPLC (Agilent 1100 series) using a Chromolith® Performance RP-18e, 100–3 mm column applying a linear gradient of 0.1% TFA in water (eluent A) to 0.1% TFA in acetonitrile (eluent B) within 5 min; flow rate 2 ml/min; UV absorbance λ = 214 nm; γ-detection. The animal trials were approved by the Animal Care and Use committees at the Regierungspräsidium Karlsruhe, Germany. Adult, female, Wistar rats (200 – 250 g) were purchased from Janvier Labs (Le Genest-Saint-Isle, France). The animals were anaesthetized by isoflurane inhalation and appropriate amounts of the 124I/125I labelled peptides, dissolved in 100 µl of 0.9% NaCl were injected into the tail vein. For PET-imaging, an Inveon small animal PET scanner (Siemens) was used. Therefore, the animals were sacrificed 10 min or 60 min after injection of the radiolabeled compound and images were taken afterwards. The scintigraphic images were obtained using a γ-camera (Gamma Imager, Biospace, France). Cumulative images from 0–10 min, 60–70 min and 120–130 min after injection, were taken. For the biodistribution studies, the animals were sacrificed at certain time points, the organs were removed and weighed and the radioactivity of each sample was measured using a Cobra Auto γ-Counter, (Packard Bioscience, USA) in comparison with standards. The tissue-associated activity was related to the total injected dose (ID) and expressed as a percentage of the total injected dose per gram of tissue (%ID/g).
In vivo infection experiments
Animal studies were approved by the local government of Lower Franconia, Germany (approval number 55.2-2532-2-57) and performed in strict accordance with the guidelines for animal care and experimentation of German Animal Protection Law and the DIRECTIVE […]
For the in vivo experiments, we applied S. aureus strain USA300 LAC* lux, which was constructed by transducing the luxABCDE operon from S. aureus Xen29 (PerkinElmer, Waltham, MA, USA) with phage φ11 into S. aureus LAC* (AH2163).14 Overnight cultures of S. aureus USA300 LAC* lux in BHI medium were diluted to a final OD600 nm of 0.05 in 50 ml fresh BHI medium and grown for 3.5 hours at 37 °C. After centrifugation, the cell pellet was resuspended in BHI with 20 % glycerol, aliquoted and stored at -80 °C. For the generation of in vivo infection inocula, aliquots were thawed and washed twice with PBS. The desired bacterial concentration (5 x 10^7 CFU/100 µl) was then adjusted based on the respective OD600 nm values. A sample of the infection inoculum was plated on TSB agar plates in order to control the infection dose.
Female Balb/c mice (6 weeks, Janvier Labs, Le Genest-Saint-Isle, France) were used for all experiments.
Mice were infected by intravenous application of the bacterial inoculum via the tail vein. Treatment started at 2 hours p.i. and following doses were applied every 12 hours. The vancomycin group received 30 mg/kg body weight/ per day, the FU002 group received 56.4 mg/kg body weight/per day, the control group received equal amounts of sterile PBS at the respective time points. The mice were […]

[2] = test system: Staphylococcus aureus USA300 LAC; experiment: microbe, parasite or virus in culture; format: cell-based; conditions: for MIC: Staphylococcus aureus, MRSA / USA300, 24 h
Method: (§1) Antimicrobial testing – Microdilution
(§2) Antimicrobial testing was performed according to CLSI and EUCAST guidelines in microdilution.8-10 Therefore, all tested substances as well as controls were dissolved in water in different concentrations and serially diluted in MHB II (cation adjusted) on the 96-well plate. A logarithmic growing, overnight culture of the respective bacterial strain was used and adjusted to a McFarland corresponding to 1 × 10^8 cfu/ml. Afterwards the bacterial suspension was diluted to 1 ×10^6 cfu/ml and loaded on the 96-well polypropylene plates, resulting in a final bacterial concentration of 5 × 10^5 cfu/ml. After an incubation at 35 ± 1 °C for 18-20 hours (re-controlled after 24 hours) the MIC was determined as the lowest concentration without visible growth as described previously.11 For direct comparison of the tested substances, all results were calculated in mg/ml and mol/ml afterwards. […]
Resistance development study
(§3) Resistance development in S. aureus was determined by passaging bacteria in increasing amounts of vancomycin, FU002 or, as control, fusidic acid. In principle, tubes with twofold dilutions of the compounds in 1 ml Muller Hinton broth were inoculated 1:100 with bacterial suspension. The tubes were then incubated for 24 h at 37 °C under shaking. After each passage, the tube with the highest compound concentration showing bacterial growth was used to inoculate the tubes of the next passage (1:100). The tube with the lowest compound concentration showing no growth was defined as the passage MIC. Passaging was stopped after 8 passages.
(§4) For the validation of possible side effects provoked by the conjugates, the cytotoxic effect of the lead candidate FU002 on human cells was assessed in a colorimetric viability assay. Different human cell types were used including kidney and liver cell lines as well as freshly isolated peripheral blood cells. Cells were seeded into 96-well microtiter plates at 2 x 10^4 cells/well and cultured overnight (18-24 h) in a […]

[3] = test system: E. faecium UL602570*; experiment: microbe, parasite or virus in culture; format: cell-based
Method: as §1, §2
Resistance development in S. aureus was determined by passaging bacteria in increasing amounts of vancomycin, FU002 or, as control, fusidic acid. In principle, tubes with twofold dilutions of the compounds in 1 ml Muller Hinton broth were inoculated 1:100 with bacterial suspension. […]
For the validation of possible side effects provoked by the conjugates, the cytotoxic effect of the lead candidate FU002 on human cells was assessed in a colorimetric viability assay. […]

[4] = test system: K. pneumoniae ATCC 700603; experiment: microbe, parasite or virus in culture; format: cell-based
Method: as §1, §2
as §3, with “As further control substance, the glycopeptide antibiotic teicoplanin was evaluated. […] Resistance” for “Resistance”
as §4

[5] = test system: A. baumannii SC300007; experiment: microbe, parasite or virus in culture; format: cell-based
Method: as §1, §2
as §3, with “As further control substance, the glycopeptide antibiotic teicoplanin was evaluated. […] Resistance” for “Resistance”
as §4

[6] = 125I-labeled compounds (FU002 as 125I-FU002y), 10 min post injection
[7] = 125I-labeled compounds (FU002 as D-Tyr derivative), 60 min post injection

Structure (SMILES) | scintigraphy, distribution and excretion [1, 6] | scintigraphy, distribution and excretion [1, 7] | biodistribution, organ uptake ([1]; 125I-labeled, 10 min post injection, compared with vancomycin) | biodistribution, retention in organ ([1]; 125I-labeled, after 1 hour, compared with vancomycin) | MIC after 8 passages ([2]; MRSA USA300 LAC, 8 passages in increasing compound concentrations, 24 h at 37 °C each) | initial MIC ([2]; MRSA USA300 LAC, before passaging, Muller Hinton broth, 24 h, 37 °C) | resistance development ([2]; after eight passages in increasing concentrations) | MIC of E. faecium UL602570* ([3]; comparison of conjugate, equimolar non-covalent mixture and vancomycin) | MIC ([4]; K. pneumoniae ATCC 700603, median of at least triplicates on two different plates) | MIC ([5]; A. baumannii SC300007, median of at least triplicates on two different plates) | PET imaging, distribution and excretion ([1]; 124I-labeled compounds, i.v. tail vein, 10 min post injection) | MIC ([2]; read-out: MIC after 8 passages) | MIC ([2]; read-out: initial MIC) | MIC ([3]; Enterococcus faecium, read-out: MIC of E. faecium UL602570*) | MIC ([4]; Klebsiella pneumoniae, ATCC700603) | MIC ([5]; Acinetobacter baumannii, SC300007)
CC(C)C[C@H](C(=O)N[C@H]1C(=O)N[C@@H](CC(N)=O)C(=O)N[C@H]2C(=O)N[C@H]3C(=O)N[C@H](C(=O)N[C@H](C(=O)O)c4cc(O)cc(O)c4-c4cc3ccc4O)[C@H](O)c3ccc(c(Cl)c3)Oc3cc2cc(c3O[C@@H]2O[C@H](CO)[C@@H](O)[C@H](O)[C@H]2O[C@H]2C[C@](C)(N)[C@H](O)[C@H](C)O2)Oc2ccc(cc2Cl)[C@H]1O)N(C)C(=O)C1CCC(CN2C(=O)CC(SC[C@H](NC(=O)[C@H](CCCNC(=N)N)NC(=O)[C@H](CCCNC(=N)N)NC(=O)[C@H](CCCNC(=N)N)NC(=O)[C@H](CCCNC(=N)N)NC(=O)[C@H](CCCNC(=N)N)NC(=O)[C@@H](N)CCCNC(=N)N)C(N)=O)C2=O)CC1 (stereo partly drawn) [FU002] | directs in the liver and the kidneys | much slower excretion | much higher organ uptake | remains much longer in the corresponding organ | 4 µg/mL (≈ 1.47 µM) | 1 µg/mL | no resistance development was observed | 1 µg/mL | ≥ 640 µg/mL | ≥ 640 µg/mL | – | – | – | – | – | –
CN[C@H](CC(C)C)C(=O)N[C@H]1C(=O)N[C@@H](CC(N)=O)C(=O)N[C@H]2C(=O)N[C@H]3C(=O)N[C@H](C(=O)N[C@H](C(=O)O)c4cc(O)cc(O)c4-c4cc3ccc4O)[C@H](O)c3ccc(c(Cl)c3)Oc3cc2cc(c3O[C@@H]2O[C@H](CO)[C@@H](O)[C@H](O)[C@H]2O[C@H]2C[C@](C)(N)[C@H](O)[C@H](C)O2)Oc2ccc(cc2Cl)[C@H]1O [vancomycin] | fast, renal excretion | almost completely excreted and only found in the bladder | – | – | – | – | – | – | – | – | renal excretion | 4 µg/mL (≈ 2.76 µM) | 0.5 µg/mL (≈ 0.345 µM) | > 64 µg/mL | ≥ 640 µg/mL | ≥ 640 µg/mL
